PMC11460631, “Inhibition of transient receptor potential vanilloid 3 channels by antimalarial hydroxychloroquine alleviates TRPV3-dependent dermatitis” (The Journal of Biological Chemistry, 2024)

Experiments:
[1] = system: TNF-α, IL-6, IgE, IL-4 in mouse dorsal skin tissues; assay: Carvacrol-induced AD-like mouse model: inflammatory factors by ELISA; assay type: in vivo
Experimental: (§1) We therefore generated a carvacrol-induced AD mouse model to test the effect of HCQ.
(§2) To generate an AD-like mice model, 2% carvacrol (dissolved in 30% ethanol solution) was topically smeared onto the mice dorsum 1 day after hair removal with a depilatory cream (Vetin Depilatory Cream). Mice received a topical administration of an equal volume (200 μl) of 2% carvacrol or in the presence of 2 mg/ml HCQ. […] After the application of carvacrol for 5 days, the external appearance of mice was photographed and then sampled. The external appearance was graded based on three aspects: thickness, erythema/bleeding, and dryness/desquamation, with severity assessed on a score of 0 to 4. The degree of thickness was measured by the thickness of the skin in H&E staining. Skin tissues were either fixed in 4% paraformaldehyde or placed in PBS buffer containing 1% protease inhibitor, facilitating subsequent steps of paraffin embedding or ELISA experiments.
Animal skin tissues were placed in PBS buffer containing 1% protease inhibitors, then homogenized, and centrifuged for supernatants. Cytokine concentrations of supernatants (IL-4, IL-6, TNF-α, and IgE) were measured using ELISA kits (Tsingke) according to the manufacturer's instructions. The absorption at 450 nm was measured by a microplate reader (Thermo Multiskan MK3).

[2] = system: C57BL/6J male mice; assay: Carvacrol-induced AD-like mouse model: skin appearance scores and H&E epidermal thickness; assay type: in vivo; conditions: score of 0 to 4, topical, 5 days; for erythema score: 2% carvacrol alone or with HCQ 2 mg/ml or DXM 1 mg/ml
Experimental: as §1
To investigate the effect of HCQ on carvacrol-induced dermatitis in animals, C57BL/6J male mice (aged 6 weeks) were obtained from the Animal Experimental Center of Hangzhou Medical College (Hangzhou, Zhejiang Province). Mice were housed and maintained in an environment with a 12-h light/dark cycle and a controlled temperature of 22.0 ± 2.0 °C. Food and water were accessible ad libitum. All the animal procedures were approved by the Institutional Animal Care & Use Committee of Zhejiang Center of Laboratory Animals (ZJCLA).
as §2
Mice were sacrificed 24 h after the last dose of treatment. Mouse dorsal skin was removed with scissors and forceps before being fixed with 4% paraformaldehyde. Paraffin-embedded tissues were sectioned and stained with H&E. Pictures of stained sections were acquired with a Nikon Eclipse Ti-S microscope with a charge-coupled device camera (DS-Ri2, Nikon).

[3] = target: T1, TRPV3 (Homo sapiens, UniProt Q8NET8); assay: Calcium imaging (Fluo-4/AM) of TRPV3-expressing HEK293T cells; assay type: cell-based
T1 construct: YFP or GFP; expressed in transfected cells; host or cells: HEK293T
T1 sequence (Q8NET8 1-790): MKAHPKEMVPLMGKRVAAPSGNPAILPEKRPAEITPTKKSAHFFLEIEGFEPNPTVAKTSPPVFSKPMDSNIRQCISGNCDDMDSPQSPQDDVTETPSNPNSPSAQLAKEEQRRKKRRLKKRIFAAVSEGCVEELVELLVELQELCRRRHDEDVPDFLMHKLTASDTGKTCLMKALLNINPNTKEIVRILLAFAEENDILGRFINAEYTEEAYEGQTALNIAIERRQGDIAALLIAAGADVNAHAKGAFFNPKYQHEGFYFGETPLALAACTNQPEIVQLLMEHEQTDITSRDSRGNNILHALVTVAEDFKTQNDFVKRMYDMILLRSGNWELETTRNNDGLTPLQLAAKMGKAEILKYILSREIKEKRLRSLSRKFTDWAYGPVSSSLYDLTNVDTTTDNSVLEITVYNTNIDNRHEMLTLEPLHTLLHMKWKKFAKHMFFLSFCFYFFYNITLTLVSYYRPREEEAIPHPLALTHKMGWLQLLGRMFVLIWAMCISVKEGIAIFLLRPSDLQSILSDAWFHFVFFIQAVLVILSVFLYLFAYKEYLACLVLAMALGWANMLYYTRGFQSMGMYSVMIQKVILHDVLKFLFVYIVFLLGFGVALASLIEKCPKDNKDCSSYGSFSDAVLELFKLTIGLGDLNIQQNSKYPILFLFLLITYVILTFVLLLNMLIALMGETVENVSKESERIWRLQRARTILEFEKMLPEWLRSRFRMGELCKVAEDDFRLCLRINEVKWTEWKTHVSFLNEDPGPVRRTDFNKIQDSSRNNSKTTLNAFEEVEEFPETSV
Experimental: (§3) HEK293T cells are cultured using Dulbecco's modified Eagle's medium containing 10% fetal bovine serum and 1% penicillin-streptomycin in a cell incubator with 5% CO2 at 37 °C. Plasmids of murine TRPV1, TRPV4, TRPM8, and human TRPV3, TRPA1 are labeled with YFP or GFP as indicators for subsequent electrophysiological recordings. Complementary DNA constructs of ion channels were transiently transfected with Lipofectamine 3000 (Invitrogen). And 12 to 18 h after transient transfection, electrophysiological recordings were performed.
Calcium imaging assays were performed as described previously ([37]). Transiently transfected HEK293 cells seeded on 25 mm coverslips were washed twice with an extracellular solution containing 140 mM NaCl, 5 mM KCl, 2 mM MgCl2, 2 mM CaCl2, 10 mM glucose, and 10 mM Hepes (pH 7.4), followed by incubation in 2 ml of extracellular solution supplemented with 2 μM Fluo-4/AM as a Molecular Probes at room temperature for 60 min. Fluorescence images of HEK293T cells were acquired with a Nikon Eclipse Ti2 microscope with an optiMOS charge-coupled device camera controlled by the Ocular Software ([…]; https://www.photometrics.com/products/ocular).

[4] = target: T1, TRPV3; assay: Whole-cell patch-clamp recordings of TRPV3 currents in transfected HEK293T cells; assay type: cell-based; conditions: 1 mM agonist, whole-cell, n = 5 cells
Experimental: as §3
(§4) Patch-clamp recordings were carried out with a HEKA EPC10 amplifier controlled by PatchMaster software (HEKA; https://www.heka.com/products/products_main.html#soft_pm) ([36]). Patch pipettes were prepared from borosilicate glass and fire-polished to the resistance of 3 to 8 MΩ by P-97 puller for whole-cell recordings. For single-channel recordings, patch pipettes were fire-polished to a higher resistance of 6 to 10 MΩ. Both bath solution and pipette solution contained 130 mM NaCl, 10 mM glucose, 0.2 mM EDTA, and 3 mM Hepes and were adjusted to pH 7.2 to 7.4 with NaOH. Whole-cell recordings and single-channel recordings were performed at ± 80 mV. The current was sampled at 10 kHz and filtered at 2.9 kHz. All recordings were performed at room temperature (25 °C). A gravity-driven system (RSC-200, Bio-Logic) with freely rotated perfusion tubes was used for the perfusion of ligands. Bath and ligand solutions were delivered through separate tubes to minimize the mixing of solutions. Patch pipette holding cells were placed in front of the perfusion tube outlet for perfusion.
All data from whole-cell recordings were analyzed in Igor Pro (WaveMetrics). IC50 values were determined by fitting the Hill equation to concentration-response relationships. Data are shown as mean ± SEM. Statistical significance between two groups was conducted with an unpaired two-tailed t test, and statistical significance among multiple groups was conducted with one-way ANOVA using Dunnett’s multiple comparisons test or Tukey's post hoc test. Differences were regarded as statistically significant with ∗, p < 0.05; ∗∗, p < 0.01; ∗∗∗, p < 0.001; ∗∗∗∗, and p < 0.0001; N.S., no significance.

[5] = target: T1, TRPV3; assay: Single-channel recordings of TRPV3 in the inside-out configuration; assay type: cell-based; conditions: 1 mM 2-APB alone, −80 mV
Experimental: as §3
as §4, with “perfusion. Igor Pro versions 5.05 and 9.05 (WaveMetrics; https://www.wavemetrics.com/products/igorpro) were used to analyze the data.” for “perfusion.”

[6] = DXM 1 mg/ml topical with 2% carvacrol

With C[C@@H]1C[C@H]2[C@@H]3CCC4=CC(=O)C=C[C@]4(C)[C@@]3(F)[C@@H](O)C[C@]2(C)[C@@]1(O)C(=O)CO [DXM, dexamethasone] the “effect on IL-6 and TNF-α” value [1, 6] was “no significant effect”, the “effect on serum IgE levels” value [1, 6] was “reduces” and the “IL-4 levels compared to the model group” value ([1]; mouse tissues, HCQ 2 mg/ml or DXM 1 mg/ml topical with 2% carvacrol) was “effectively reduced”. The erythema score [2] was 2.83 ± 0.17.

NCCOB(c1ccccc1)c1ccccc1 [2-APB, 2-aminoethoxydiphenylborate] was tested, and the “calcium influx, area under the curve (AUC) of 2-APB activation” value ([3]; 1 mM 2-APB alone) was 22.92 ± 1.44, the “wash-off time constant of TRPV3 current” value [4] was 4.05 ± 0.73 s and the “TRPV3 channel open probability (Po)” value [5] was 0.89 ± 0.06. The single-channel conductance [5] was 90.69 ± 2.67 pS.

With C[C@H](CCC(=O)O)C[C@H](C)C[C@H](C)C(=O)/C=C(\O)[C@H](C)C[C@H](C)C/C=C/[C@@H](C)[C@@H](O)[C@@H](C)[C@@H](O)C[C@@H]1CC[C@@](C)([C@H]2CC[C@@](C)([C@@H](C)O)O2)O1 [ionomycin] the “calcium influx, area under the curve (AUC), positive control” value ([3]; 10 μM ionomycin) was 41.59 ± 1.50.

With Cc1ccc(C(C)C)cc1O [carvacrol] the “wash-off time constant of TRPV3 current” value [4] was 1.43 ± 0.38 s, the dry desquamation score ([2]; 2% carvacrol alone or with HCQ 2 mg/ml) was 3.17 ± 0.31 and the erythema score [2] was 3.67 ± 0.21.
